Measurements reported in patent US9546160B2, “Hepatitis C virus inhibitors” (Bristol-Myers Squibb Company, priority 2011, dated 2017).
pEC50: −log10 of the molar value.

System: HCV 1b genotype
Experiment: HCV Replicon assay
Assay type: cell-based
Details: HCV 1b genotype replicon; read-out: 1b (μM) EC50 (Effective 50% inhibitory concentration)
Description: An HCV Replicon assay was utilized in the present disclosure, and was prepared, conducted and validated as described in commonly owned PCT/US2006/022197 and in O'Boyle et. al. Antimicrob Agents Chemother. 2005 Apr; 49(4):1346-53. Assay methods incorporating luciferase reporters have also been used as described (Apath.com).
HCV-neo replicon cells and replicon cells containing resistance substitutions in the NS5A region were used to test the currently described family of compounds.

| Compound | EC50 [nM] |
| --- | --- |
| COC(=O)NC(C(=O)N1[C@@H]2C[C@@H]2C[C@H]1c1nc(-c2ccc(-c3ccc(-c4c[nH]c([C@@H]5C[C@H]6C[C@H]6N5C(=O)C(NC(=O)OC)[C@H]5C[C@@H]6[C@H](C5)C6(F)F)n4)cc3)cc2)c[nH]1)[C@H]1C[C@@H]2[C@H](C1)C2(F)F (stereo partly drawn) [QC2.3, dimethyl (4,4′-biphenyldiylbis(1H-imidazole-4,2-diyl(1R,3S,5R)-2-azabicyclo[3.1.0]hexane-3,2-diyl(1-((1R,3r,5S)-6,6-difluorobicyclo[3.1.0]hex-3-yl)-2-oxo-2,1-ethanediyl)))biscarbamate] | 1.08 |

Same assay, conditions: HCV 1b genotype replicon; read-out: Range (EC50 ranges against HCV 1b)

| Compound | pEC50 |
| --- | --- |
| COC(=O)NC(C(=O)N1[C@@H](C)CC[C@H]1c1ncc(-c2ccc(-c3ccc(-c4cnc([C@@H]5CC[C@H](C)N5C(=O)C(NC(=O)OC)C5CCOC6(CCCC6)C5)[nH]4)cc3)cc2)[nH]1)C1CCOC2(CCCC2)C1 (single isomer, unassigned) [Example 3.1] | 6.85 to 9.05 |
| COC(=O)N[C@@H](C(=O)N1C2C[C@@H]2C[C@H]1c1nc(-c2ccc(-c3ccc(-c4c[nH]c([C@@H]5C[C@H]6CC6N5C(=O)[C@H](NC(=O)OC)C5[C@H]6COC[C@@H]56)n4)cc3)cc2)c[nH]1)C1[C@H]2COC[C@@H]12 (stereo partly drawn) [QC4.2, dimethyl (4,4′-biphenyldiylbis(1H-imidazole-4,2-diyl(1R,3S,5R)-2-azabicyclo[3.1.0]hexane-3,2-diyl(1-((1R,5S,6s)-3-oxabicyclo[3.1.0]hex-6-yl)-2-oxo-2,1-ethanediyl)))biscarbamate] | 9.05 to 10.00 |
| COC(=O)NC(C(=O)N1[C@@H]2C[C@@H]2C[C@H]1c1nc(-c2ccc(-c3ccc(-c4c[nH]c([C@@H]5C[C@H]6C[C@H]6N5C(=O)C(NC(=O)OC)[C@H]5C[C@@H]6[C@H](C5)C6(F)F)n4)cc3)cc2)c[nH]1)[C@H]1C[C@@H]2[C@H](C1)C2(F)F (stereo partly drawn) [QC2.3, dimethyl (4,4′-biphenyldiylbis(1H-imidazole-4,2-diyl(1R,3S,5R)-2-azabicyclo[3.1.0]hexane-3,2-diyl(1-((1R,3r,5S)-6,6-difluorobicyclo[3.1.0]hex-3-yl)-2-oxo-2,1-ethanediyl)))biscarbamate] | 6.85 to 9.05 |
| COC(=O)NC(C(=O)N1[C@@H]2C[C@@H]2C[C@H]1c1nc(-c2ccc(-c3ccc(-c4c[nH]c([C@@H]5C[C@H]6C[C@H]6N5C(=O)C(NC(=O)OC)[C@H]5C[C@@H]6[C@H](C5)C6(F)F)n4)cc3)cc2)c[nH]1)[C@H]1C[C@@H]2[C@H](C1)C2(F)F (stereo partly drawn) [QC2.2, dimethyl (4,4′-biphenyldiylbis(1H-imidazole-4,2-diyl(1R,3S,5R)-2-azabicyclo[3.1.0]hexane-3,2-diyl(1-((1R,3r,5S)-6,6-difluorobicyclo[3.1.0]hex-3-yl)-2-oxo-2,1-ethanediyl)))biscarbamate] | 10.00 to 11.30 |
| COC(=O)NC(C(=O)N1[C@@H](C)CC[C@H]1c1ncc(-c2ccc(-c3ccc(-c4cnc([C@@H]5CC[C@H](C)N5C(=O)C(NC(=O)OC)C5CCOC6(CCC6)C5)[nH]4)cc3)cc2)[nH]1)C1CCOC2(CCC2)C1 (single isomer, unassigned) [Example 2.2] | 6.85 to 9.05 |
| COC(=O)NC(C(=O)N1[C@@H]2C[C@@H]2C[C@H]1c1nc(-c2ccc(-c3ccc(-c4c[nH]c([C@@H]5C[C@H]6C[C@H]6N5C(=O)C(NC(=O)OC)[C@@H]5C[C@@H]6C[C@@H]6C5)n4)cc3)cc2)c[nH]1)[C@@H]1C[C@@H]2C[C@@H]2C1 (stereo partly drawn) [QC3.2, dimethyl (4,4′-biphenyldiylbis(1H-imidazole-4,2-diyl(1R,3S,5R)-2-azabicyclo[3.1.0]hexane-3,2-diyl(1-((1R,3r,5S)-bicyclo[3.1.0]hex-3-yl)-2-oxo-2,1-ethanediyl)))biscarbamate] | 10.00 to 11.30 |
| COC(=O)NC(C(=O)N1[C@@H](C)CC[C@H]1c1ncc(-c2ccc(-c3ccc(-c4cnc([C@@H]5CC[C@H](C)N5C(=O)C(NC(=O)OC)C5CCOC6(CCC6)C5)[nH]4)cc3)cc2)[nH]1)C1CCOC2(CCC2)C1 (single isomer, unassigned) [Example 2.1] | 6.85 to 9.05 |
| COC(=O)N[C@@H](C(=O)N1C2C[C@@H]2C[C@H]1c1nc(-c2ccc(-c3ccc(-c4c[nH]c([C@@H]5C[C@H]6CC6N5C(=O)[C@H](NC(=O)OC)C5[C@H]6COC[C@@H]56)n4)cc3)cc2)c[nH]1)C1[C@H]2COC[C@@H]12 (stereo partly drawn) [QC4.1, dimethyl (4,4′-biphenyldiylbis(1H-imidazole-4,2-diyl(1R,3S,5R)-2-azabicyclo[3.1.0]hexane-3,2-diyl(1-((1R,5S,6s)-3-oxabicyclo[3.1.0]hex-6-yl)-2-oxo-2,1-ethanediyl)))biscarbamate] | 10.00 to 11.30 |
| COC(=O)NC(C(=O)N1[C@@H](C)CC[C@H]1c1ncc(-c2ccc(-c3ccc(-c4cnc([C@@H]5CC[C@H](C)N5C(=O)C(NC(=O)OC)C5CCOC6(CCCC6)C5)[nH]4)cc3)cc2)[nH]1)C1CCOC2(CCCC2)C1 (single isomer, unassigned) [Example 3.2] | 6.85 to 9.05 |
| COC(=O)NC(C(=O)N1[C@@H](C)CC[C@H]1c1nc(-c2ccc(-c3ccc(-c4c[nH]c([C@@H]5CC[C@H](C)N5C(=O)C(NC(=O)OC)C5CCC6(CC6)OC5)n4)cc3)cc2)c[nH]1)C1CCC2(CC2)OC1 (some centres unmarked) [Example 1.2] | 10.00 to 11.30 |
| COC(=O)NC(C(=O)N1[C@@H]2C[C@@H]2C[C@H]1c1nc(-c2ccc(-c3ccc(-c4c[nH]c([C@@H]5C[C@H]6C[C@H]6N5C(=O)C(NC(=O)OC)[C@@H]5C[C@@H]6C[C@@H]6C5)n4)cc3)cc2)c[nH]1)[C@@H]1C[C@@H]2C[C@@H]2C1 (stereo partly drawn) [QC3.3, dimethyl (4,4′-biphenyldiylbis(1H-imidazole-4,2-diyl(1R,3S,5R)-2-azabicyclo[3.1.0]hexane-3,2-diyl(1-((1R,3r,5S)-bicyclo[3.1.0]hex-3-yl)-2-oxo-2,1-ethanediyl)))biscarbamate] | 9.05 to 10.00 |

Same assay, conditions: Hepatitis C virus, HCV 1b genotype replicon; read-out: 1b (μM) EC50 (Effective 50% inhibitory concentration)

| Compound | EC50 [nM] |
| --- | --- |
| COC(=O)NC(C(=O)N1[C@@H]2C[C@@H]2C[C@H]1c1nc(-c2ccc(-c3ccc(-c4c[nH]c([C@@H]5C[C@H]6C[C@H]6N5C(=O)C(NC(=O)OC)[C@@H]5C[C@@H]6[C@H](C5)C6(F)F)n4)cc3)cc2)c[nH]1)[C@@H]1C[C@@H]2[C@H](C1)C2(F)F (single isomer, unassigned) [QC1.2] | 0.0049 |
| COC(=O)NC(C(=O)N1[C@@H]2C[C@@H]2C[C@H]1c1nc(-c2ccc(-c3ccc(-c4c[nH]c([C@@H]5C[C@H]6C[C@H]6N5C(=O)C(NC(=O)OC)[C@H]5C[C@@H]6C[C@@H]6C5)n4)cc3)cc2)c[nH]1)[C@H]1C[C@@H]2C[C@@H]2C1 (single isomer, unassigned) [QC5.3] | 0.00555 |

Same assay, conditions: Hepatitis C virus, HCV 1b genotype replicon; read-out: Range (EC50 ranges against HCV 1b)

| Compound | pEC50 |
| --- | --- |
| COC(=O)NC(C(=O)N1[C@@H](C)CC[C@H]1c1nc(-c2ccc(-c3ccc(-c4c[nH]c([C@@H]5CC[C@H](C)N5C(=O)C(NC(=O)OC)C5CCC6(CC6)OC5)n4)cc3)cc2)c[nH]1)C1CCC2(CC2)OC1 (some centres unmarked) [Example 1.1] | 10.00 to 11.30 |
| COC(=O)NC(C(=O)N1[C@@H]2C[C@@H]2C[C@H]1c1nc(-c2ccc(-c3ccc(-c4c[nH]c([C@@H]5C[C@H]6C[C@H]6N5C(=O)C(NC(=O)OC)[C@@H]5C[C@@H]6[C@H](C5)C6(F)F)n4)cc3)cc2)c[nH]1)[C@@H]1C[C@@H]2[C@H](C1)C2(F)F (single isomer, unassigned) [QC1.3] | 9.05 to 10.00 |
| COC(=O)NC(C(=O)N1CCC[C@H]1c1nc(-c2ccc(-c3c[nH]c([C@@H]4CCCN4C(=O)C(NC(=O)OC)C4CCOC5(CC5)C4)n3)cc2)c[nH]1)C1CCOC2(CC2)C1 (stereo partly drawn) [Example QC14, dimethyl (benzene-1,4-diylbis(1H-imidazole-4,2-diyl(2S)pyrrolidine-2,1-diyl(1-(4-oxaspiro[2.5]oct-7-yl)-2-oxoethane-2,1-diyl)))biscarbamate] | 6.85 to 9.05 |
| COC(=O)N[C@H](C(=O)C1[C@@H](CF)CC[C@H]1c1ncc(-c2ccc(-c3ccc(-c4cnc([C@@H]5CC[C@H](CF)N5C(=O)[C@@H](NC(=O)OC)[C@H]5CCOC6(CC6)C5)[nH]4)cc3)cc2)[nH]1)[C@H]1CCOC2(CC2)C1 (some centres unmarked) [Example 8] | 10.00 to 11.30 |
| COC(=O)NC(C(=O)N1[C@@H]2C[C@@H]2C[C@H]1c1nc(-c2ccc(-c3ccc(-c4c[nH]c([C@@H]5C[C@H]6C[C@H]6N5C(=O)C(NC(=O)OC)[C@H]5C[C@@H]6C[C@@H]6C5)n4)cc3)cc2)c[nH]1)[C@H]1C[C@@H]2C[C@@H]2C1 (single isomer, unassigned) [QC5.3] | 10.00 to 11.30 |
| COC(=O)NC(C(=O)N1[C@@H](C)CC[C@H]1c1ncc(-c2ccc(-c3ccc(-c4cnc([C@@H]5CC[C@H](C)N5C(=O)C(NC(=O)OC)C5CC6(CC6)C5)[nH]4)cc3)cc2)[nH]1)C1CC2(CC2)C1 (some centres unmarked) [Example 5.2] | 6.85 to 9.05 |
